Counter-ions that a name gives are not always drawn. Like-named read-outs stand apart in the source and are kept apart here.
Key:
Aβ42 [1] = assay: γ-secretase-modulating activity, Method 2: Aβ42 Alphalisa in supernatant of SKNBE2 cells carrying APP 695-wild type (Table 3b); format: cell-based; settings: overnight
How it was run: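 SKNBE2 cells expressing wild-type APP695 were incubated overnight at 37° C. with test compound. Secreted Aβ42 was then measured by AlphaLISA, using a C-terminal Aβ42 antibody paired with an N-terminal Aβ antibody. IC50 came from a 4-parameter fit of percent of compound-free control.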

Aβtotal [2] = assay: γ-secretase-modulating activity, Method 2: Aβtotal Alphalisa in supernatant of SKNBE2 cells carrying APP 695-wild type (Table 3b); format: cell-based; settings: overnight, read-out: IC50 Aβtot
How it was run: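 SKNBE2 cells expressing wild-type APP 695 were incubated overnight at 37 °C, 5% CO2 with test compound at a range of concentrations. Aβtotal in supernatant was measured by AlphaLISA sandwich (N-terminal JRF/AβN/25 acceptor, biotinylated mid-region 4G8 donor); IC50 from 4-parameter fit of percent control versus log concentration.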

Aβ42 [3] = assay: In vivo efficacy, Method 2: brain soluble Aβ42 lowering 4 h after a single oral dose, ELISA (Table 4b); parameters: species or system mouse; settings: dose 30 mg/kg oral dosing
Excerpt: (§1) To determine whether acute administration of an Aβ42 lowering agent would reduce Aβ42 levels in vivo, non-transgenic rodents, e.g. mice or rats were used. Animals treated with the Aβ42 lowering agent were examined and compared to those untreated or treated with vehicle and brain levels of soluble Aβ42 and total Aβ were quantitated by standard techniques, for example, using ELISA. Treatment periods varied from hours (h) to days and were adjusted based on the results of the Aβ42 lowering once a time course of onset of effect could be established.
(§2) A typical protocol for measuring Aβ42 lowering in vivo is shown but it is only one of many variations that could be used to optimize the levels of detectable Aβ. For example, Aβ42 lowering compounds were formulated in 20% of Captisol® (a sulfobutyl ether of β-cyclodextrin) in water or 20% hydroxypropyl β cyclodextrin. The Aβ42 lowering agents were administered as a single oral dose or by any acceptable route of administration to overnight fasted animals. After 4 h, the animals were sacrificed and Aβ42 levels were analysed.
(§3) Blood was collected by decapitation and exsanguinations in EDTA-treated collection tubes. Blood was centrifuged at 1900 g for 10 minutes (min) at 4° C. and the plasma recovered and flash frozen for later analysis. The brain was removed from the cranium and hindbrain. The cerebellum was removed and the left and right hemisphere were separated. The left hemisphere was stored at −18° C. for quantitative analysis of test compound levels. The right hemisphere was rinsed with phosphate-buffered saline (PBS) buffer and immediately frozen on dry ice and stored at −80° C. until homogenization for biochemical assays.
(§4) Mouse brains from non-transgenic animals were resuspended in 8 volumes of 0.4% DEA (diethylamine)/50 mM NaCl containing protease inhibitors (Roche-11873580001 or 04693159001) per gram of tissue, e.g. for 0.158 g brain, add 1.264 ml of 0.4% DEA. All samples were homogenized in the FastPrep-24 system (MP Biomedicals) using lysing matrix D (MPBio #6913-100) at 6 m/s for 20 seconds. Homogenates were centrifuged at 221.300×g for 50 min. The resulting high speed supernatants were then transferred to fresh eppendorf tubes. Nine parts of supernatant were neutralized with 1 part 0.5 M Tris-HCl pH 6.8 and used to quantify Aβtotal and Aβ42.
(§5) To quantify the amount of Aβtotal and Aβ42 in the soluble fraction of the brain homogenates, Enzyme-Linked-Immunosorbent-Assays were used. Briefly, the standards (a dilution of synthetic Aβ1-40 and Aβ1-42, Bachem) were prepared in 1.5 ml Eppendorf tube in Ultraculture, with final concentrations ranging from 10000 to 0.3 pg/ml. The samples and standards were co-incubated with HRPO-labelled N-terminal antibody for Aβ42 detection and with the biotinylated mid-domain antibody 4G8 for Aβtotal detection. 50 μl of conjugate/sample or conjugate/standards mixtures were then added to the antibody-coated plate (the capture antibodies selectively recognize the C-terminal end of Aβ42, antibody JRF/cAβ42/26, for Aβ42 detection and the N-terminus of Aβ, antibody JRF/rAβ/2, for Aβtotal detection). The plate was allowed to incubate overnight at 4° C. in order to allow formation of the antibody-amyloid complex. Following this incubation and subsequent wash steps the ELISA for Aβ42 quantification was finished by addition of Quanta Blu fluorogenic peroxidase substrate according to the manufacturer's instructions (Pierce Corp., Rockford, Ill.). A reading was performed after 10 to 15 min (excitation 320/emission 420).
In this model at least 20% Aβ42 lowering compared to untreated animals would be advantageous.
(§6) The results are shown in Table 4b (dose 30 mg/kg oral dosing): […]

Aβtotal [4] = assay: In vivo efficacy, Method 2: brain soluble Aβtotal lowering 4 h after a single oral dose, ELISA (Table 4b); parameters: species or system mouse; settings: dose 30 mg/kg oral dosing
Excerpt: as §1, §2, §3, §4, §5
For Aβtotal detection, a Streptavidine-Peroxidase-Conjugate was added, followed 60 min later by an additional wash step and addition of Quanta Blu fluorogenic peroxidase substrate according to the manufacturer's instructions (Pierce Corp., Rockford, Ill.). A reading was performed after 10 to 15 min (excitation 320 nm/emission 420 nm).
as §6

Compound | IC50 (Aβ42 [1]; Homo sapiens) [nM] | IC50 (Aβtotal [2]; Homo sapiens) [nM] | melting point [°C] | IC50 (Aβ42 [1]) [nM] | IC50 (Aβtotal [2]) [nM] | Aβ42 (% Ctrl) _Mean (Aβ42 [3]) [% Ctrl] | Aβtotal (% Ctrl) _Mean (Aβtotal [4]) [% Ctrl]
COc1cc(-c2nc(-c3cc(F)c(F)c(F)c3)n(C(C)C)n2)ccc1-n1cnc(C)c1 [Compound 84] | 316 | > 10000 | 122.23 |  |  |  | 
COc1ccc(CO)c(Nc2nc(-c3ccc(-n4cnc(C)c4)c(OC)c3)nn2C)c1 [Compound 200] | 158 | > 10000 | 235.2 |  |  |  | 
COc1cc(-c2nc(Nc3cc(C(C)(C)O)ccc3F)n(C)n2)ccc1-n1cnc(C)c1 [Compound 175] | 89 | > 10000 | 193.8 |  |  |  | 
COc1cc(-c2nc3nccc(-c4ccccc4C(F)(F)F)n3n2)ccc1-n1cnc(C)c1 [Compound 290] | 224 | > 10000 | 191 |  |  |  | 
COc1nc(-c2nc(Nc3cc(C(F)(F)F)ccc3F)n(C)n2)ccc1-n1cnc(C)c1 [Compound 154] | 17 | > 10000 | 230.1 |  |  |  | 
COc1cc(-c2nc3n(n2)CCCC3c2ccc(F)cc2C)ccc1-n1cnc(C)c1 (stereo not shown) [Compound 258] | 62 | > 10000 | 241.8 |  |  |  | 
COc1cc(-c2nc3nc(-c4ccccc4C(F)(F)F)ccn3n2)ccc1-n1cnc(C)c1 [Compound 291] | 45 | 9770 | 193.4 |  |  |  | 
COc1cc(-c2nc(Sc3cccc(C(F)(F)F)c3)n(C)n2)ccc1-n1cnc(C)c1 (as salt: HCl) (hydrate or solvate) [Compound 249] |  |  | 78.4 |  |  |  | 
COc1cc(-c2nc(-c3ccccc3Cl)n(C)n2)ccc1-n1cnc(C)c1 [Compound 2] | 468 | > 10000 | 149.3 |  |  |  | 
COc1cc(-c2nc3cncc(-c4ccc(F)cc4C)n3n2)ccc1-n1cnc(C)c1 [Compound 295] | 537 | > 10000 | 210.7 |  |  |  | 
COc1cc(-c2nc3n(n2)CCCC3c2ccccc2C(F)(F)F)ccc1-n1cnc(C)c1 (stereo not shown) [Compound 10] | 25 | 8320 | 218 |  |  |  | 
COc1cc(-c2nc3n(n2)CCCC3c2ccc(F)cc2)ccc1-n1cnc(C)c1 (stereo not shown) [Compound 251] | 245 | > 10000 | 190.5 |  |  |  | 
COc1cc(-c2nc(C(=O)c3ccc(F)cc3)n(C)n2)ccc1-n1cnc(C)c1 [Compound 21] | 6920 | > 10000 | 145.3 |  |  |  | 
COc1cc(-c2nc3n(n2)CCN(C)C3c2ccccc2C(F)(F)F)ccc1-n1cnc(C)c1 (stereo not shown) [Compound 275] | 269 | > 10000 | 154.26 |  |  |  | 
COc1cc(-c2nc3n(n2)CCCN3c2ccccc2C(F)(F)F)ccc1-n1cnc(C)c1 [Compound 18] | 76 | > 10000 | 211.6 |  |  |  | 
COc1cc(-c2nc3n(n2)CCOC3c2cc(OC(F)(F)F)ccc2F)ccc1-n1cnc(C)c1 (stereo not shown) [Compound 281] | 76 | > 10000 | 232.1 |  |  |  | 
COc1cc(-c2nc(Nc3ccccc3C)n(C)n2)ccc1-n1cnc(C)c1 [Compound 97] | 49 | > 10000 | 159.4 |  |  |  | 
COc1cc(-c2nc(Nc3cccc(C(F)(F)F)n3)n(C)n2)ccc1-n1cnc(C)c1 [Compound 236] | 575 | > 10000 | 240 |  |  |  | 
COc1cc(-c2nc3n(n2)CCNC3c2ccccc2C(F)(F)F)ccc1-n1cnc(C)c1 (stereo not shown) [Compound 278] | 398 | > 10000 | 183 |  |  |  | 
COc1cc(-c2nc3c(-c4ccccc4C(F)(F)F)nccn3n2)ccc1-n1cnc(C)c1 [Compound 294] | 537 | > 10000 | 176.9 |  |  |  | 
COc1cc(-c2nc(Nc3ccc(F)cc3C)n(C)n2)ccc1-n1cnc(C)c1 [Compound 130] | 60 | > 10000 | 189.7 |  |  |  | 
COc1cc(-c2nc(Nc3c(F)cccc3OC)n(C)n2)ccc1-n1cnc(C)c1 [Compound 214] |  |  |  | 170 | > 10000 | −15 | 0
COc1cc(-c2nc(Nc3cc(N(C)C)ccc3F)n(C)n2)ccc1-n1cnc(C)c1 [Compound 180] |  |  |  | 22 | > 10000 | 51 | 10
COc1cc(-c2nc(Nc3cccc(C(F)(F)F)c3F)n(C)n2)ccc1-n1cnc(C)c1 [Compound 148] |  |  |  | 23 | > 10000 | 37 | 12
COc1cc(-c2nc(Nc3ccccc3C(F)(F)F)n(C)n2)ccc1-n1cnc(C)c1 [Compound 157] | 63 | > 15000 | 159.3 |  |  |  | 
COc1cc(-c2nc(-c3ccccc3Cl)n(C(C)C)n2)ccc1-n1cnc(C)c1 [Compound 66] | 562 | > 10000 | 159 |  |  |  | 
COc1nc(-c2nc(Nc3cccc(C(F)(F)F)c3)n(C)n2)ccc1-n1cnc(C)c1 [Compound 153] |  |  |  | 8 | > 10000 | 14 | −6
COc1nc(-c2nc(Nc3ccccc3C(F)(F)F)n(C)n2)ccc1-n1cnc(C)c1 [Compound 132] |  |  |  | 135 | > 10000 | 39 | −1
COc1cc(-c2nc(Nc3c(F)cccc3Cl)n(C)n2)ccc1-n1cnc(C)c1 [Compound 125] |  |  |  | 85 | > 10000 | 2 | 11
COc1cc(-c2nc(-c3ccc(-n4cnc(C)c4)c(OC)c3)n[nH]2)ccc1Cl [Compound 20] | 257 | > 10000 | 262.6 |  |  |  | 
